The NIST ThermoML archive (doi:10.1021/je800416y)

Settings: 101.33 kPa, Liquid

CN(CCO)CCO [N-methyldiethanolamine]
Settings | mass density [kg/m3]
298.15 K | 1038.22
303.15 K | 1034.49
308.15 K | 1030.75
313.15 K | 1026.99
318.15 K | 1023.25
323.15 K | 1019.47
328.15 K | 1015.64
333.15 K | 1011.8
338.15 K | 1007.92
